Measurements published in patent US8399689B2, “Chrysophaentin antimicrobial compounds that inhibit FtsZ protein” (The United States of America, as represented by the …, priority 2010, dated 2013).
Converted amounts (≈) assume the structure as drawn.

Tests used:
[1] = test system: methicillin-resistant S. aureus (MRSA, ATCC BAA-41); test: Agar disk diffusion assay, MRSA; type: cell-based, Staphylococcus aureus
Protocol: (§1) Compounds 1-8 were tested for antimicrobial activity against Staphylococcus aureus (SA, ATCC 25923), methicillin-resistant S. aureus (MRSA, ATCC BAA-41), multidrug-resistant S. aureus (MDRSA, ATCC BAA-44), Enterococcus faecium (EF, ATCC 49032), vancomycin-resistant E. Faecium (VRE, ATCC 700221), and Bacillus subtilis (ATCC 49343) using a modified disk diffusion assay and microbroth liquid dilution assays. For disk diffusion assays, agar plates seeded with suspensions of bacteria were prepared by adding 500 μL of a 24 h culture of bacteria to 100 mL of autoclaved Mueller Hinton II agar and cooled to 55° C. Seeded liquid agar (10 mL) was transferred immediately to square Petri dishes and allowed to cool for 1 h. Control drugs used for each microorganism included kanamycin (50 μg) for S. aureus, and nitrofurantoin (25 μg) for MRSA. Following incubation at 37° C. for 18 h, zones of inhibition were measured. MICso values for compounds 1 and 4-8 were determined using a microbroth dilution assay outlined in the Clinical and Laboratory Standards Institute methods for susceptibility tests for bacteria that grow aerobically. Briefly, single bacterial colonies were used to inoculate 4 mL of Trypticase Soy broth (BD) for overnight growth and inoculum for each were diluted to 5×10^5 CFU/mL using the 0.5 McFarland standard. In a 96 well plate (Costar, round bottom), control antibiotics (oxacillin for SA and MRSA, vancomycin for EF and VRE, chloramphenicol for B. subtilis) or natural product inhibitors were added to Muller Hinton II broth (for S. aureus, MRSA, and B. subtilis) or 10% brain heart infusion broth (for E. faecium and VRE) in the first column of the well plates, and serially diluted across the plate, reserving wells for a positive growth control (no treatment). 10 μL of diluted bacteria were added to all wells with the exception of those kept for broth blanks (MHII or brain heart infusion broth only). Plates were incubated at 37° C. overnight and read at absorbance 600 nm on a Molecular Devices plate reader. Growth curves were plotted and ICso values obtained using Kalidagraph software.

[2] = test system: Enterococcus faecium (EF, ATCC 49032); test: Microbroth dilution assay, E. faecium; type: cell-based; conditions: concentration at which growth is reduced by 50%
Protocol: as §1

[3] = test system: multidrug-resistant S. aureus (MDRSA, ATCC BAA-44); test: Microbroth dilution assay, MDRSA; type: cell-based; conditions: Staphylococcus aureus, ATCCBAA44
Protocol: (§2) Compounds 1-8 were tested for antimicrobial activity against Staphylococcus aureus (SA, ATCC 25923), methicillin-resistant S. aureus (MRSA, ATCC BAA-41), multidrug-resistant S. aureus (MDRSA, ATCC BAA-44), Enterococcus faecium (EF, ATCC 49032), vancomycin-resistant E. Faecium (VRE, ATCC 700221), and Bacillus subtilis (ATCC 49343) using a modified disk diffusion assay and microbroth liquid dilution assays. For disk diffusion assays, agar plates seeded with suspensions of bacteria were prepared by adding 500 μL of a 24 h culture of bacteria to 100 mL of autoclaved Mueller Hinton II agar and cooled to 55° C. Seeded liquid agar (10 mL) was transferred immediately to square Petri dishes and allowed to cool for 1 h. Control drugs used for each microorganism included kanamycin (50 μg) for S. aureus, and nitrofurantoin (25 μg) for MRSA. Following incubation at 37° C. for 18 h, zones of inhibition were measured. MICso values for compounds 1 and 4-8 were determined using a microbroth dilution assay outlined in the Clinical and Laboratory Standards Institute methods for susceptibility tests for bacteria that grow aerobically. […] Plates were incubated at 37° C. overnight and read at absorbance 600 nm on a Molecular Devices plate reader. […]

recombinant E. coli FtsZ = recombinant E. coli FtsZ (Escherichia coli, UniProt P0A9A6); test: FtsZ GTPase colorimetric (malachite green) assay; type: biochemical; conditions: 2 μM FtsZ, 0.25 mM GTP, pH 6.5
Protocol: Solutions were incubated at room temperature for 5 min, followed by addition of 0.25 mM GTP. At the end of a 20-min incubation period, enzyme activity was quenched by addition of 50 μL Malachite Green solution and the wells read at A^625 on an absorbance plate reader.

[4] = test system: human colon tumor cell line HCT-116; test: Cytotoxicity, HCT-116; type: cell-based; conditions: did not inhibit growth at concentrations as high as
[5] = test system: Gram-positive pathogens (S. aureus, B. subtilis, E. faecium, MRSA, MDRSA, VREF); test: Disk diffusion and microbroth dilution assays, strains taken together; type: cell-based
Excerpt: Solid agar disk diffusion and microbroth dilution assays were used to evaluate the antimicrobial activities of compounds 1, hexaacetate 1a, and 4-8 toward clinically relevant, Gram-positive pathogens, including the drug-susceptible bacteria Staphylococcus aureus, Bacillus subtilis and Enterococcus faecium, and drug-resistant strains methicillin-resistant S. aureus (MRSA), multidrug-resistant S. aureus (MDRSA), and vancomycin-resistant E. faecium (VREF) (see Table 7, Example 2).
as §2, with “aerobically. Briefly, single bacterial colonies were used to inoculate 4 mL of Trypticase Soy broth (BD) for overnight growth and inoculum for each were diluted to 5×10^5 CFU/mL using the 0.5 McFarland standard.” for “aerobically.”

Chain of recombinant E. coli FtsZ (P0A9A6 whole entry): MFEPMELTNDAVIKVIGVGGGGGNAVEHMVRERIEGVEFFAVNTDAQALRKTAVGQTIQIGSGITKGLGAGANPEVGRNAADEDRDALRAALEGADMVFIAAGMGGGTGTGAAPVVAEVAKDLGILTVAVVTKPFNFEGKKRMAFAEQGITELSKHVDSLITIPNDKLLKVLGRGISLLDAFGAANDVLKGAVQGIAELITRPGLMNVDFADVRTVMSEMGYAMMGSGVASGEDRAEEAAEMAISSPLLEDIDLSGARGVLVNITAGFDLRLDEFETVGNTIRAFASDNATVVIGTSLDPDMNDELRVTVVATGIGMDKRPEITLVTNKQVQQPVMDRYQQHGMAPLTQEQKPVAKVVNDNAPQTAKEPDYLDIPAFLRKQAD

## Oc1cc(O)c2c(c1)C/C(Cl)=C\Cc1cc(c(Cl)cc1O)Oc1c(O)cc(cc1O)C/C(Cl)=C\Cc1cc(c(Cl)cc1O)O2 [Compound 1, chrysophaentin 1]
[1]; Lowest concentrations leading to 8-10 mm zones of inhibition
  Agar disk diffusion (μg/disk) MRSA: 2 μg/disk
[1]; Staphylococcus aureus, at 2 μg/disk
  zone of inhibition at 2 µg/disc: 10 mm
[2]; Enterococcus faecium, ATCC49032, microbroth dilution, read-out: MIC50 (μg/mL) E. faecium
  MIC50: 3.8 ± 1.9 µg/mL (≈ 5.6 µM)
[2]; microbroth dilution
  MIC50 (μg/mL) E. faecium: 3.5 ± 1.8 µg/mL (≈ 5.16 µM)
[3]
  MIC50: 1.3 ± 0.4 mg/L (≈ 1.92 µM)
Recombinant E. coli FtsZ; IC50, inhibition of GTPase activity of FtsZ (molar), value in brackets
  IC50: 9.9 µM
Recombinant E. coli FtsZ; IC50, inhibition of GTPase activity of FtsZ
  IC50: 9.88 µM
[4]
  concentration without growth inhibition, HCT-116: > 50 µg/mL
[5]
  potency relative to chrysophaentin 6: 3-5 times
